Test results as given in PubChem BioAssay (NCI).
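In this assay, cells in 96-well plates receive the compound at five concentrations for 48 hours. Endpoints are linearly interpolated between the surrounding concentrations. GI50 = concentration required for 50% inhibition of growth. TGI: concentration producing complete growth inhibition.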

How the values were obtained:
Experiment in all cases: NCI tumour cell line growth inhibition, 48 h
NCI-H23 lung = test system: NCI-H23 lung
M14 melanoma = test system: M14 melanoma
HS 578T breast = test system: HS 578T breast
786-0 renal = test system: 786-0 renal
PC-3 prostate = test system: PC-3 prostate
SK-MEL-28 melanoma = test system: SK-MEL-28 melanoma
HOP-92 NSCLC = test system: HOP-92 NSCLC
OVCAR-4 ovarian = test system: OVCAR-4 ovarian
MDA-N = test system: MDA-N
HL-60(TB) leukemia = test system: HL-60(TB) leukemia
RPMI-8226 leukemia = test system: RPMI-8226 leukemia

Structure (SMILES)	TGI (NCI-H23 lung)	TGI (M14 melanoma)	TGI (HS 578T breast)	TGI (786-0 renal)	TGI (PC-3 prostate)	TGI (SK-MEL-28 melanoma)	TGI (HOP-92 NSCLC)	TGI (OVCAR-4 ovarian)	TGI (MDA-N)	TGI (HL-60(TB) leukemia)	TGI (RPMI-8226 leukemia)	GI50 (PC-3 prostate)
O=C1/C(=C\c2ccccc2)C(NC2CCCCC2)c2ccccc21 (centres undefined)	2.28 µM	3.18 µM	16.3 µM	2.14 µM	3.78 µM	6.06 µM	4.8 µM	3.93 µM	3.8 µM	3.02 µM	2.42 µM	–
Cc1ccc(C(=O)O)cc1S(=O)(=O)Nn1cnc2ccc(S(=O)(=O)Nc3ccccc3C(=O)O)cc2c1=O	> 100 µM	> 100 µM	> 100 µM	> 100 µM	> 100 µM	> 100 µM	> 100 µM	> 100 µM	> 100 µM	> 100 µM	> 100 µM	–
O=C1C=CC(=O)c2c1ccc1c3ccccc3n(CCCCCCCCCCCCn3c4ccccc4c4ccc5c(c43)C(=O)C=CC5=O)c21	> 100 µM	> 100 µM	> 100 µM	> 100 µM	> 100 µM	> 100 µM	> 100 µM	> 100 µM	> 100 µM	> 91.3 µM	> 100 µM	–
CC(C)=CCc1c2c(c3occ(-c4ccc(O)cc4)c(=O)c3c1O)CC(C(C)(C)O)O2 (centres undefined)	36 µM	28.2 µM	69.5 µM	35.6 µM	26.7 µM	58.5 µM	33.5 µM	28.8 µM	49.1 µM	34.4 µM	29.9 µM	–
COc1ccc(-c2cc(O)c3nc4ccccc4n3c2)cc1	> 100 µM	> 100 µM	> 100 µM	> 100 µM	> 100 µM	> 100 µM	> 100 µM	> 100 µM	> 100 µM	> 100 µM	> 100 µM	–
Nn1c(-c2ccccc2)nn(C(=O)c2ccccc2)c1=O	> 100 µM	> 100 µM	> 100 µM	> 100 µM	> 100 µM	> 100 µM	> 100 µM	> 100 µM	> 100 µM	> 100 µM	> 100 µM	–
C1CN(c2nc3c(nnc4nc(N5CCOCC5)sc43)s2)CCO1	> 100 µM	> 100 µM	> 100 µM	> 100 µM	> 100 µM	> 100 µM	> 100 µM	> 100 µM	> 100 µM	> 100 µM	> 100 µM	–
COC(=O)C([C@H](NC1(c2ccccc2)c2ccccc2-c2ccccc21)C(=O)OC)N(NC(=O)OCc1ccccc1)C(=O)OCc1ccccc1 (mixture of isomers)	> 100 µM	> 100 µM	> 100 µM	> 100 µM	> 100 µM	> 100 µM	> 100 µM	> 100 µM	> 100 µM	> 100 µM	> 100 µM	–
CCOC(=O)c1csc(NC(=O)CN2CCOCC2)n1	> 100 µM	> 100 µM	> 100 µM	–	> 100 µM	> 100 µM	> 100 µM	> 100 µM	> 100 µM	> 100 µM	> 100 µM	–
COC(=O)c1cc(=O)nc2sc3cccc(C)c3n12	> 100 µM	> 100 µM	> 100 µM	47.3 µM	> 100 µM	> 100 µM	69.1 µM	> 100 µM	> 100 µM	62.6 µM	67.9 µM	–
ClCCN1CCC2(CC1)SSC1(CCN(CCCl)CC1)S2	> 100 µM	> 100 µM	> 100 µM	> 100 µM	> 100 µM	> 100 µM	29.2 µM	> 100 µM	> 100 µM	76.8 µM	57.1 µM	–
COc1cc(C2c3cc4c(cc3OC(N3CCOCC3)C2C)OCO4)ccc1O (centres undefined)	> 95.7 µM	> 63.5 µM	41.9 µM	> 100 µM	> 100 µM	> 100 µM	> 100 µM	> 100 µM	4.41 µM	23.6 µM	19.9 µM	–
CCOC(=O)CSc1c(C(=O)OCC)c(=O)n(-c2ccccc2)c(=S)n1-c1ccccc1	> 100 µM	> 100 µM	> 100 µM	> 100 µM	> 100 µM	> 100 µM	20.6 µM	> 100 µM	> 100 µM	47.4 µM	> 100 µM	–
CC(C)(C)OC(=O)NCCCCC1NC(=O)[C@@H]2Cc3c([nH]c4ccccc34)C(C3CCCCC3)N2C1=O (some centres undefined)	> 100 µM	> 100 µM	> 100 µM	> 100 µM	> 100 µM	> 100 µM	> 100 µM	> 100 µM	> 100 µM	> 100 µM	41 µM	–
O=c1[nH]c(Nc2cccc(CC(F)(F)F)c2)nc2nc[nH]c12	> 100 µM	> 100 µM	> 100 µM	> 100 µM	> 100 µM	> 100 µM	> 100 µM	> 100 µM	> 100 µM	> 100 µM	> 100 µM	–
COC(=O)c1c(C)cccc1C1CN=NC12Cc1ccc(C)cc1C2=O (centres undefined)	> 100 µM	> 100 µM	> 100 µM	> 100 µM	> 100 µM	> 100 µM	> 100 µM	> 100 µM	> 100 µM	47.1 µM	> 100 µM	–
COc1cc(Br)cc2cc(-c3cn4ccsc4n3)c(=O)oc12	> 100 µM	> 100 µM	> 100 µM	> 100 µM	> 100 µM	> 100 µM	71.9 µM	> 100 µM	42.2 µM	> 100 µM	> 100 µM	–
CC(=O)OC1CC(OC2C(O)CC(OC3C(O)CC(OC4CCC5(C)C(CCC6C5CC(O)C5(C)C(C7=CC(=O)OC7)CCC65O)C4)OC3C)OC2C)OC(C)C1OC1OC(CO)C(O)C(O)C1O (centres undefined)	0.0744 µM	0.343 µM	0.525 µM	0.107 µM	0.206 µM	0.979 µM	0.517 µM	0.207 µM	0.526 µM	0.22 µM	25.7 µM	0.0522 µM
CC(=O)NC(Cc1ccc(O)cc1)C(=O)O (centres undefined)	> 100 µM	> 100 µM	> 100 µM	> 100 µM	> 100 µM	> 100 µM	> 100 µM	> 100 µM	> 100 µM	> 100 µM	> 100 µM	–
CC[C@@H]1CC[C@@H]2[C@H](CC[C@]3(C)[C@@H](OC(C)=O)CC[C@@H]23)[C@H]1COC(C)=O	79.1 µM	76.6 µM	> 100 µM	> 100 µM	> 100 µM	> 100 µM	69.8 µM	75 µM	62.2 µM	39.2 µM	48.7 µM	–
NC(=O)NCCCC(NC(=O)OCCCCn1ccc(=O)[nH]c1=O)C(=O)O (centres undefined)	> 100 µM	> 100 µM	> 100 µM	> 100 µM	> 100 µM	> 100 µM	> 100 µM	> 100 µM	> 100 µM	> 100 µM	> 100 µM	–
C[C@]12CCC(O)CC1=CC[C@@H]1[C@@H]2CC[C@]2(C)C(=O)[C@H](n3ccnc3)C[C@@H]12 (some centres undefined)	> 100 µM	> 100 µM	> 100 µM	> 100 µM	> 100 µM	> 100 µM	> 100 µM	> 100 µM	> 100 µM	40.7 µM	> 100 µM	–
COC(=O)C1SC(SC)=NC12c1ccccc1Nc1ccccc12 (centres undefined)	38.9 µM	40.1 µM	> 100 µM	> 100 µM	87 µM	48.5 µM	69.8 µM	> 100 µM	70.6 µM	87.9 µM	49.4 µM	–
CCCN(C(=O)c1ccccc1)C(C#N)c1ccc(C(C#N)N(CCC)C(=O)c2ccccc2)cc1 (centres undefined)	> 100 µM	> 100 µM	86.7 µM	> 100 µM	> 100 µM	–	64.4 µM	66.7 µM	> 100 µM	> 100 µM	> 100 µM	–
NC(N)=N/N=C/c1c(-c2ccc(N)cc2)nc2sccn12	95.2 µM	57.9 µM	> 100 µM	62 µM	58.7 µM	> 100 µM	> 100 µM	> 100 µM	60.1 µM	47.9 µM	99.2 µM	–
CC(C)(C)N1CSC(=S)N(Cc2ccco2)C1	11.1 µM	11.8 µM	26.1 µM	11.5 µM	13.7 µM	10.8 µM	12.1 µM	26.7 µM	16.5 µM	4.03 µM	0.697 µM	–
O=C(N/N=C(/COc1ccc(Cl)cc1)N=Cc1ccncc1)c1ccncc1	> 100 µM	> 100 µM	> 100 µM	> 100 µM	> 100 µM	> 100 µM	> 100 µM	> 100 µM	> 100 µM	> 100 µM	> 100 µM	–
Cc1ccccc1C(=O)N1CCc2c([nH]c3ccccc23)C1	50.9 µM	45.4 µM	84.8 µM	54.4 µM	33.9 µM	> 100 µM	44.4 µM	74.9 µM	43.9 µM	39.2 µM	51.3 µM	–
COc1ccc2cc(NC(=O)N/N=C\c3ccc([N+](=O)[O-])cc3)ccc2c1	77.9 µM	> 100 µM	> 100 µM	> 100 µM	> 100 µM	> 100 µM	> 100 µM	5.74 µM	> 100 µM	> 100 µM	> 100 µM	–
CCCCCCc1cc2cc(-c3csc(CC#N)n3)c(=O)oc2cc1O	> 100 µM	> 100 µM	> 100 µM	> 64.2 µM	> 100 µM	> 100 µM	69 µM	12.9 µM	> 100 µM	> 66.9 µM	> 100 µM	–
